Experimental findings from ChEMBL document CHEMBL1136310, “Pyrazino[1,2-a]indole-1,4-diones, simple analogues of gliotoxin, as selective inhibitors of geranylgeranyltransferase I” (Bioorg Med Chem Lett, 2003) are described below.

Some results are limits rather than exact numbers.

One experiment has as its target Geranylgeranyl transferase type I (Homo sapiens, UniProt P49354+P53609). In words: Inhibition of [3H]-GGPP incorporation into recombinant human Ha-Ras-CVLL by Geranylgeranyl transferase type I. Format: protein-complex assay.
Regarding `COc1cccc2c1cc1n2C(=O)C(SSCc2ccccc2)N(C)C1=O` (stereo unspecified), the IC50 is above 100 µM.
Same read-out and setting: in the case of `COc1cccc2c1cc1n2C(=O)C(SC(C)=O)N(C)C1=O` (stereo unspecified) it was 90.3 µM; in that of `CN1C(=O)c2cc3ccccc3n2C(=O)C1SSCc1ccccc1` (stereo unspecified), above 100 µM; in that of `COc1cccc2c1cc1n2C(=O)CN(C)C1=O`, above 100 µM.
The same measure, in the same setting: the result for `CN1CC(=O)N2c3ccccc3CC2C1=O` (stereo unspecified) reads above 100 µM; that for `COc1cccc2c1CC1C(=O)N(C)CC(=O)N21` (stereo unspecified), above 100 µM; that for `CN1CC(=O)n2c(cc3ccccc32)C1=O`, above 100 µM.
On the same count and under the same terms, the result for `CN1C(=O)[C@]23CC4=CC=C[C@H](O)[C@H]4N2C(=O)[C@@]1(CO)SS3` [GLIOTOXIN] reads 17 µM.

The next experiment deals with Protein farnesyltransferase (Homo sapiens, UniProt P49354+P49356). In words: Inhibition of [3H]FPP incorporation into recombinant human Ha-Ras-CVLS by farnesyl transferase. The class given is protein-complex assay.
In the case of `COc1cccc2c1cc1n2C(=O)C(SSCc2ccccc2)N(C)C1=O` (stereo unspecified), the IC50 is above 100 µM.
As to `COc1cccc2c1cc1n2C(=O)C(SC(C)=O)N(C)C1=O` (stereo unspecified), the IC50 was determined as 748 µM.
Take `CN1C(=O)c2cc3ccccc3n2C(=O)C1SSCc1ccccc1` (stereo unspecified): the IC50 is above 100 µM.
The same measure, in the same setting: the result for `COc1cccc2c1cc1n2C(=O)CN(C)C1=O` reads above 100 µM.
On the same count and under the same terms, in the case of `CN1CC(=O)N2c3ccccc3CC2C1=O` (stereo unspecified) it was above 100 µM; in that of `COc1cccc2c1CC1C(=O)N(C)CC(=O)N21` (stereo unspecified), above 100 µM; in that of `CN1CC(=O)n2c(cc3ccccc32)C1=O`, above 100 µM.
Turning to `CN1C(=O)[C@]23CC4=CC=C[C@H](O)[C@H]4N2C(=O)[C@@]1(CO)SS3` [GLIOTOXIN], the IC50 is 80 µM.

Usually IC50 stands for the concentration at which inhibition is half-maximal.
